The text below walks through data of US7396538B2, “Apparatus and method for delivery of mitomycin through an eluting biocompatible implantable medical device” (Endovascular Devices, Inc., priority 2002, dated 2008).

Values after ≈ are worked out from the molar mass of the structure shown.

This assay concerns vascular smooth muscle cell. The assay can be described thus: vascular smooth muscle cell (VSMC) proliferation study at varying concentrations of mitomycin C. The class given is cell-based. On the procedure: One example of a study was conducted to investigate the vascular smooth muscle cell proliferation (VSMC) from varying concentrations of the mitomycin C. […] A lower dosage of mitomycin C would still permit the advance of VSMC and contribute to increased restenosis and […]. Depending upon the observed biological effects from potentially cytotoxic local tissue levels, a higher concentration of mitomycin C may also still be sufficient.

Take `CO[C@@]12[C@H](COC(N)=O)C3=C(C(=O)C(C)=C(N)C3=O)N1C[C@@H]1N[C@@H]12` [mitomycin C]: the IC50 (Rattus norvegicus, extrapolation from a logarithmic curve of VSMC inhibition at various dosages, read-out: concentration at which about 50% VSMC inhibition occurs) is roughly 0.067 µg/mL (≈ 0.2 µM). For the same compound, the VSMC inhibited entry (dose of about 0.334 micrograms per milliliter) was “about 66%” and the VSMC inhibited entry (dose of about 25.1 micrograms per milliliter) is recorded as “about 98%”.
